In ChEMBL document CHEMBL3797112, “Flavonoid profile and antileukemic activity of Coreopsis lanceolata flowers” (Bioorg Med Chem Lett, 2016):
The source made the active and inactive calls. The rule behind the calls is not given here.

Legend:
[1] = system: HL-60; test: (§1) Antiproliferative activity against human HL60 cells assessed as cell survival at 25 uM incubated for 48 hrs by CCK8 assay; type: functional
[2] = Retention time of the compound by UPLC-ESI-MS method; type: physicochemical
[3] = as §1; type: functional; settings: HL-60, 48 h, read-out: Survival
[4] = system: HL-60; test: Induction of apoptosis in human HL60 cells at 25 uM incubated for 48 hrs by Giemsa staining assay; type: functional, cell-based
[5] = system: HL-60; test: Induction of apoptosis in human HL60 cells assessed as induction of morphological changes at 25 uM incubated for 48 hrs by Hoechst-33342 staining assay; type: functional, cell-based

Structure (SMILES)	Activity [1]	Retention_time [2] [min]	viability at 25 µM [3] [%]	Activity [4]	Activity [5]
COc1c(O)ccc2c1O/C(=C\c1ccc(O)c(O)c1)C2=O	inactive	25.04			
COc1c(O)ccc(C(=O)/C=C/c2ccc(O)c(O)c2)c1O	inactive	30.97			
COc1c(O[C@@H]2O[C@H](CO)[C@@H](O)[C@H](O)[C@H]2O)ccc2c1O/C(=C\c1ccc(O)c(O)c1)C2=O	inactive	16.07			
CC(=O)O[C@H]1C(=O)[C@@]2(C)[C@H]([C@H](OC(=O)c3ccccc3)[C@]3(O)C[C@H](OC(=O)[C@H](O)[C@@H](NC(=O)c4ccccc4)c4ccccc4)C(C)=C1C3(C)C)[C@]1(OC(C)=O)CO[C@@H]1C[C@@H]2O [PACLITAXEL]			18.9		
COc1ccc(/C=C/C(=O)c2ccc(O)c(OC)c2O)cc1O		41.24	23.8	Active	Active
COc1c(O)ccc2c1O[C@H](c1ccc(O)c(O)c1)CC2=O	inactive	18.52			
O=C(/C=C/c1ccc(O)c(O)c1)c1ccc(O)c(O)c1O	inactive	20.14			
